Test results reported in US3976768A, “Fortimicin A” (Abbott Laboratories, priority 1973, dated 1976).
In brackets after ≈: the same amount, converted by molar mass. Entries after “also recorded” stand apart in the source; their conditions may differ.

Legend:
[1] = test system: Streptococcus faecalis ATCC 10541; experiment: Antibacterial spectrum, agar dilution method (pH 8.0); type: cell-based; conditions: Enterococcus faecalis, ATCC10541, read-out: Minimum inhibitory concentration
[2] = test system: Bacillus subtilis No. 10707; experiment: as above; type: cell-based; conditions: read-out: Minimum inhibitory concentration
[3] = test system: Bacillus cereus ATCC 9634; experiment: as above; type: cell-based; conditions: ATCC9634, read-out: Minimum inhibitory concentration
[4] = test system: Bacillus cereus var. mycoides ATCC 9463; experiment: microbe, parasite or virus in culture; type: cell-based; conditions: ATCC9463, pH 8, read-out: Minimum inhibitory concentration
[5] = test system: Staphylococcus aureus ATCC 6538P; experiment: Antibacterial spectrum, agar dilution method (pH 8.0); type: cell-based; conditions: ATCC6538P, read-out: Minimum inhibitory concentration
[6] = test system: Staphylococcus aureus KY 8942; experiment: as above; type: cell-based; conditions: KY8942, resistant to Kanamycin, Paramomycin, Streptomycin, Gentamicin and Nebramycin, read-out: Minimum inhibitory concentration
[7] = test system: Staphylococcus aureus KY 8950; experiment: as above; type: cell-based; conditions: KY8950, resistant to Streptomycin, Tetracycline, Penicillin and sulfonamide, read-out: Minimum inhibitory concentration
[8] = test system: Staphylococcus aureus KY 8953; experiment: as above; type: cell-based; conditions: KY8953, resistant to Streptomycin, Kanamycin, Paromomycin, Tetracycline, Neomycin, Kanamycin B and Erythromycin, read-out: Minimum inhibitory concentration
[9] = test system: Staphylococcus aureus KY 8956; experiment: as above; type: cell-based; conditions: KY8956, resistant to Streptomycin, Paromomycin, Tetracycline, Erythromycin and Oleandomycin, read-out: Minimum inhibitory concentration
[10] = test system: Staphylococcus aureus KY 8957; experiment: as above; type: cell-based; conditions: KY8957, resistant to Chloramphenicol, Streptomycin, Kanamycin B, Tetracycline and Paromomycin, read-out: Minimum inhibitory concentration
[11] = test system: Klebsiella pneumoniae ATCC 10031; experiment: as above; type: cell-based; conditions: ATCC10031, read-out: Minimum inhibitory concentration
Escherichia coli ATCC 26 = experiment: as above; type: cell-based; conditions: ATCC26, read-out: Minimum inhibitory concentration
Escherichia coli KY 8302 = experiment: as above; type: cell-based; conditions: KY8302, resistant to Chloramphenicol, Streptomycin, Kanamycin, Paromomycin, Tetracycline and Spectinomycin, read-out: Minimum inhibitory concentration
Escherichia coli KY 8310 = experiment: as above; type: cell-based; conditions: KY8310, resistant to Chloramphenicol, Streptomycin, Kanamycin, Gentamicin, Kanamycin B, Paromomycin, Tetracycline and Spectinomycin, read-out: Minimum inhibitory concentration
Escherichia coli KY 8314 = experiment: as above; type: cell-based; conditions: KY8314, resistant to Streptomycin, read-out: Minimum inhibitory concentration
Escherichia coli KY 8315 = experiment: as above; type: cell-based; conditions: KY8315, resistant to Streptomycin, Kanamycin, Paromomycin and Neomycin, read-out: Minimum inhibitory concentration
Escherichia coli KY 8327 = experiment: as above; type: cell-based; conditions: KY8327, pH 8, read-out: Minimum inhibitory concentration
Escherichia coli KY 8331 = experiment: as above; type: cell-based; conditions: KY8331, resistant to Kanamycin, Ribostamycin, Neomycin, Paromomycin and Lividomycin, read-out: Minimum inhibitory concentration
Escherichia coli KY 8332 = experiment: as above; type: cell-based; conditions: KY8332, resistant to Kanamycin and Tobramycin, read-out: Minimum inhibitory concentration
[12] = test system: Pseudomonas aeruginosa BMH No. 1; experiment: as above; type: cell-based; conditions: BMHNO.1, read-out: Minimum inhibitory concentration
[13] = test system: Pseudomonas aeruginos KY 8510; experiment: as above; type: cell-based; conditions: KY8510, pH 8, read-out: Minimum inhibitory concentration
[14] = test system: Proteus vulgaris ATCC 6897; experiment: as above; type: cell-based; conditions: ATCC6897, read-out: Minimum inhibitory concentration
Proteus vulgaris KY 4296 = experiment: as above; type: cell-based; conditions: KY4296, resistant to nalidixic acid, read-out: Minimum inhibitory concentration
[15] = test system: Proteus vulgaris Abbott JJ, KY 4295; experiment: as above; type: cell-based; conditions: read-out: Minimum inhibitory concentration
[16] = test system: Proteus mirabilis Finland 9 KY 4293; experiment: as above; type: cell-based; conditions: FINLAND9KY4293, read-out: Minimum inhibitory concentration
[17] = test system: Proteus mirabilis No. 825 KY 4292; experiment: as above; type: cell-based; conditions: NO.825KY4292, read-out: Minimum inhibitory concentration
[18] = test system: Proteus mirabilis No. 39 KY 4290; experiment: as above; type: cell-based; conditions: NO.39KY4290, read-out: Minimum inhibitory concentration
[19] = test system: Proteus morganii Jenkins KY 4298; experiment: as above; type: cell-based; conditions: Morganella morganii, read-out: Minimum inhibitory concentration
[20] = test system: Proteus rettgeri Booth KY 4288; experiment: as above; type: cell-based; conditions: Providencia rettgeri, read-out: Minimum inhibitory concentration
[21] = test system: Proteus rettgeri Hambrook KY 4289; experiment: as above; type: cell-based; conditions: Providencia rettgeri, read-out: Minimum inhibitory concentration
[22] = test system: Shigella sonnei ATCC 9290; experiment: as above; type: cell-based; conditions: ATCC9290, read-out: Minimum inhibitory concentration
[23] = test system: Salmonella typhosa ATCC 9992; experiment: as above; type: cell-based; conditions: Salmonella enterica, pH 8, read-out: Minimum inhibitory concentration
[24] = test system: Escherichia coli Juhl KY 4286; experiment: In vivo test on mice infected intraperitoneally with Escherichia coli, subcutaneous treatment; design: species or system mice infected with Escherichia coli Juhl KY 4286
Description: In this respect, in vivo tests have been conducted on mice infected intraperitoneally with Escherichia coli Juhl KY 4286. The thus infected mice were treated with various concentrations of Fortimicin A by subcutaneous […]. As a result the ED50 of Fortimicin A has been determined to be 6mg/kg. In view of the excellent antibacterial activity, the present substance, Fortimicin A, is considered to be useful in medical treatment as an antibacterial substance. Moreover, in view of the foregoing wide antibacterial spectrum, Fortimicin A may also be useful as a surface antibacterial agent.

[25] = Solubility of the free base; type: physicochemical
[26] = test system: Gram-positive and Gram-negative bacteria; experiment: Antibacterial activity against Gram-positive and Gram-negative bacteria (in words); type: cell-based
Staphylococcus aureus = experiment: Antibacterial activity against resistant Staphylococcus aureus (in words); type: cell-based; conditions: Staphylococcus aureus resistant to various known antibiotics
Escherichia coli = experiment: Antibacterial activity against resistant Escherichia coli (in words); type: cell-based; conditions: Escherichia coli resistant to various known antibiotics
[27] = test system: bacteria of the genus Proteus; experiment: Antibacterial activity against bacteria of the genus Proteus (in words); type: cell-based

## COC1C(O)C(N)C(OC2OC(C(C)N)CCC2N)C(O)C1N(C)C(=O)CN (centres unmarked) [Fortimicin A]
[1]
  MIC: 10 µg/mL (≈ 24.7 µM)
[2]
  MIC: 0.02 µg/mL (≈ 0.0493 µM)
[3]
  MIC: 0.6 µg/mL (≈ 1.48 µM)
[4]
  MIC: 0.6 µg/mL (≈ 1.48 µM)
[5]
  MIC: 0.04 µg/mL (≈ 0.0986 µM)
[6]
  MIC: 10 µg/mL (≈ 24.7 µM)
[7]
  MIC: 1.3 µg/mL (≈ 3.21 µM)
[8]
  MIC: 1.3 µg/mL (≈ 3.21 µM)
[9]
  MIC: 0.32 µg/mL (≈ 0.789 µM)
[10]
  MIC: 0.32 µg/mL (≈ 0.789 µM)
[11]
  MIC: 0.08 µg/mL (≈ 0.197 µM)
Escherichia coli ATCC 26
  MIC: 0.16 µg/mL (≈ 0.395 µM)
Escherichia coli KY 8302
  MIC: 0.26 µg/mL (≈ 0.641 µM)
Escherichia coli KY 8310
  MIC: 0.13 µg/mL (≈ 0.321 µM)
Escherichia coli KY 8314
  MIC: 0.26 µg/mL (≈ 0.641 µM)
Escherichia coli KY 8315
  MIC: 0.13 µg/mL (≈ 0.321 µM)
Escherichia coli KY 8327
  MIC: 0.13 µg/mL (≈ 0.321 µM)
Escherichia coli KY 8331
  MIC: 0.3 µg/mL (≈ 0.74 µM)
Escherichia coli KY 8332
  MIC: 0.3 µg/mL (≈ 0.74 µM)
[12]
  MIC: 5 µg/mL (≈ 12.3 µM)
[13]
  MIC: 5 µg/mL (≈ 12.3 µM)
[14]
  MIC: 0.16 µg/mL (≈ 0.395 µM)
Proteus vulgaris KY 4296
  MIC: 0.41 µg/mL (≈ 1.01 µM)
[15]
  MIC: 0.8 µg/mL (≈ 1.97 µM)
[16]
  MIC: 0.8 µg/mL (≈ 1.97 µM)
[17]
  MIC: 0.41 µg/mL (≈ 1.01 µM)
[18]
  MIC: 0.8 µg/mL (≈ 1.97 µM)
[19]
  MIC: 1.6 µg/mL (≈ 3.95 µM)
[20]
  MIC: 0.8 µg/mL (≈ 1.97 µM)
[21]
  MIC: 0.41 µg/mL (≈ 1.01 µM)
[22]
  MIC: 0.3 µg/mL (≈ 0.74 µM)
[23]
  MIC: 0.08 µg/mL (≈ 0.197 µM)
[24]; Escherichia coli, JUHLKY4286, sc
  ED50: 6 mg/kg
[24]; therapy of infectious diseases caused by the tested bacteria
  Therapeutic effects: remarkable therapeutic effects
[25]; chloroform, benzene, ethyl acetate, butyl acetate, ethyl ether, butanol, petroleum ether, n-hexane, etc., free base
  Solubility in organic solvents: insoluble
[25]; ethanol and acetone, free base
  Solubility in ethanol and acetone: slightly soluble
[25]; methanol, free base
  Solubility in methanol: soluble
[25]; ordinary organic solvents
  Solubility in the ordinary organic solvents: poorly soluble
[25]; water, free base
  Solubility in water: soluble; also recorded: very soluble
[26]
  Antibacterial activity: active upon Gram-positive and Gram-negative bacteria; also recorded: wide range of activity
Staphylococcus aureus
  Antibacterial activity: strong antibacterial activity
Escherichia coli
  Antibacterial activity: strong antibacterial activity
[27]
  Antibacterial activity: satisfactory antibacterial activity

## CNC1C(O)C(OC2OC(C(C)N)CCC2N)C(N)C(O)C1OC (centres unmarked) [Fortimicin B]
[26]
  Antibacterial activity: activity against Gram-positive and Gram-negative bacteria
